Laboratory results reported in US20260014171A1, “COMPOSITION FOR THE USE IN THE TREATMENT OF POLYCYSTIC OVARY SYNDROME” (LO.LI. PHARMA S.R.L., priority 2023, published 2026).

Columns and labels:
Assay type in all cases: cell-based
[1] = test system: IGF-1; assay: IGF-1 gene expression by Real Time PCR in co-cultured bovine theca and granulosa cells; conditions: Phase 1: FSH (46 h), LH 1.5 UI/ml + insulin 100 ng/ml 10 min, then exogenous IGF-1 100 ng/ml 48 h; vs untreated control
Procedure: (§1) The anti-proliferative activity of Dioscorea villosa, Vitamin D, and α-lactalbumin was investigated (alone or in combination) in cultured bovine theca and granulosa cells (co-culture). To investigate the properties of these natural molecules, the inventors evaluated their effect on cell viability, proliferation, and apoptosis.
(§2) Bovine theca and granulosa were co-cultured, (DMEM, High glucose 5% FBS, […], 1% Pen/Strep, 1% Amphotericin B, 1% Glutamine) for 7 days. The cells were grown in petri dishes and treated shortly before reaching 80% confluence. […]
(§3) The expression of insuline like growth factor IGF-1 and IGF-BP1 insulin like growth factor binding protein 1 were both measured by Real Time PCR and western blot, to investigate the effects of the treatment with the raw materials; namely, Dioscorea villosa, Vitamin D and α-lactalbumin alone or in combination.
(§4) The results were measured as 2^−ΔΔCt for the mRNA assay. Both for the Real Time PCR and western blot analyses, the data are expressed as fold increases in relation to the housekeeping genes. Proliferation (ki67 western blot assay) and apoptosis (caspase-9 western blot assay) assessed the expression as per the experimental conditions reported above.
(§5) Co-cultured bovine theca and granulosa cells; grown as described in phase 1. The expression of IGF-1 and IGF-BP1 were analyzed after treatment with Dioscorea villosa. […]

[2] = test system: IGFBP-1; assay: IGFBP-1 gene expression by Real Time PCR in co-cultured bovine theca and granulosa cells; conditions: Phase 1: FSH (46 h), LH + insulin, then exogenous IGF-1 100 ng/ml 48 h; vs untreated control
Procedure: as §1, §2, §3, §4, §5

[3] = test system: ki-67; assay: ki-67 gene expression (mRNA) in co-cultured bovine theca and granulosa cells; conditions: Phase 1: FSH (46 h), LH + insulin, then exogenous IGF-1 100 ng/ml 48 h; vs untreated control
Procedure: as §1, §2, §4, §5
(§6) The results were measured as […] for the mRNA assay. Both for the Real Time PCR and western blot analyses, the data are expressed as fold increases in relation to the housekeeping genes. […]
(§7) The results were measured as […] for the mRNA assay. […]

[4] = test system: caspase-9; assay: caspase-9 gene expression (mRNA) in co-cultured bovine theca and granulosa cells; conditions: Phase 1: FSH (46 h), LH + insulin, then exogenous IGF-1 100 ng/ml 48 h; vs untreated control
Procedure: as §1, §2, §4, §5, §6, §7

[5] = test system: IGF-1; assay: IGF-1 protein quantification by western blot in co-cultured bovine theca and granulosa cells; conditions: Phase 1: FSH (46 h), LH + insulin, then exogenous IGF-1 100 ng/ml 48 h; vs untreated control
Procedure: as §1, §2, §3, §4, §5

[6] = test system: IGFBP-1; assay: IGFBP-1 protein quantification by western blot in co-cultured bovine theca and granulosa cells; conditions: Phase 1: FSH (46 h), LH + insulin, then exogenous IGF-1 100 ng/ml 48 h; vs untreated control
Procedure: as §1, §2, §3, §4, §5

[7] = test system: ki-67; assay: Proliferation (ki67 western blot assay) in co-cultured bovine theca and granulosa cells
Procedure: as §1, §2, §4, §5, §6, §7

[8] = test system: caspase-9; assay: Apoptosis (caspase-9 western blot assay) in co-cultured bovine theca and granulosa cells
Procedure: as §1, §2, §4, §5, §6, §7

[9] = Phase 1: FSH (46 h), LH + insulin, then exogenous IGF-1 100 ng/ml 48 h, vs untreated control
[10] = Results text: treatment with IGF-1 (48 h)

IGF-1: exogenous insulin like growth factor IGF-1, 100 ng/ml for 48 h, used as proliferative stimulus
gene expression of IGF-1 (mRNA) [1]: significant increase | gene expression of IGFBP-1 (mRNA) [2]: not significant | gene expression of ki-67 (mRNA) [3]: significant increase | gene expression of caspase-9 (mRNA) [4]: not significant | quantification of IGF-1 protein [5]: significant increase | quantification of IGFBP-1 protein [6]: not significant | quantification of ki-67 protein [7, 9]: significant increase | proliferative effect [7, 10]: strong proliferative effect | quantification of caspase-9 protein [8, 9]: not significant | rate of apoptosis observed in the cell culture [8, 10]: reduction in the rate of apoptosis
